{
  "source": "paper PMC3528769",
  "about": "“Comparative Study of the Fatty Acid Binding Process of a New FABP from Cherax quadricarinatus by Fluorescence Intensity, Lifetime and Anisotropy” (PLoS ONE, 2012)",
  "target": "Cq-FABP (Cherax quadricarinatus, UniProt L0I6Z9)",
  "sequence (L0I6Z9 entry or part of it)": "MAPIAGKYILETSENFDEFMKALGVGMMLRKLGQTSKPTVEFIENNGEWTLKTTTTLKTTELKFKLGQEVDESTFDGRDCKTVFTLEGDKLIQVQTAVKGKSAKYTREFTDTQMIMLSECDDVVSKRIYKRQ",
  "assay": "BODIPY-C16 steady-state fluorescence anisotropy titration and competition",
  "assay_type": "binding",
  "settings": "for Kd: read-out: Kd,FA",
  "experimental": "The binding of 4,4-difluoro-5, 7-dimethyl-4-bora-3a, 4a-diaza-s-indacene-3-hexadecanoic acid (BODIPY-C16) to Cq-FABP was investigated by measuring the steady-state fluorescence anisotropy parameter using a Beacon instrument (PanVera, Madison, USA), in a cell thermostatically held at 25°C. The excitation and emission bandpass filters were centered at 488 nm (±6 nm) and 525 nm (±15 nm), respectively. Titration experiments were performed in buffer C (supplemented with 10% DMSO (v/v)) by maintening a constant concentration of BODIPY-C16 (200 nM) and by adding increasing concentrations of Cq-FABP. Using a vertical direction for the polarized excitation source, the steady-state fluorescence anisotropy (r) was calculated according to: [drawing 3] (3) where IV and IH correspond to the parallel (vertical) and perpendicular (horizontal) fluorescence emission intensity components, respectively. The fraction of BODIPY-C16/Cq-FABP complexes (i.e. the fraction of BODIPY-C16 bound to Cq-FABP), fb, was calculated using the following relationship: [drawing 4] (4) where r is the measured fluorescence anisotropy value, rf and rb correspond to the fluorescence anisotropy values of free BODIPY-C16 (ligand in the free state, measured in the absence of Cq-FABP) and Cq-FABP-bound BODIPY-C16 (ligand in the bound state, corresponding to the maximum anisotropy value found at the plateau), respectively. […] The Kd characterizing the BODIPY-C16/Cq-FABP complex (Kd,C16) was calculated by fitting the plot of fb versus [Cq-FABP] using the Graphpad Prism 5.0 software.\nThe fluorescence anisotropy-based assay was also used in competition experiments to calculate the Kd values (Kd,FA) characterizing non-fluorescent fatty acids. The measurement of the apparent Kd value characterizing the BODIPY-C16/Cq-FABP complex (Kd ^app ,C16) under different concentration conditions for the non-fluorescent FA allows the calculation of Kd,FA according to: [drawing 5] (5) where Kd,C16 corresponds to the Kd characterizing the BODIPY-C16/Cq-FABP complex (in the absence of any non-fluorescent FA) and Kd ^app ,C16 corresponds to the apparent dissociation constant obtained for a given concentration of non-fluorescent FA. The calculation of Kd,FA was also performed in an independent manner by measuring the IC50 value characterizing each non-fluorescent FA. In this approach, the number of complexes corresponding to [C16] = 200 nM and [Cq-FABP] = 5 µM was varied by increasing the concentration of non-fluorescent FA. The IC50 value corresponds to the concentration of non-fluorescent FA that displaces 50% of C16 from the fatty acid binding site of Cq-FABP and is related to Kd,FA through the Cheng-Prusoff relationship: [drawing 6] (6)",
  "note": "Where two headings read alike, the source gives them in different places.",
  "data": [
    {"smiles": "CCCCCCCCCCCCCCCC(=O)O", "note": "[PA, Palmitic acid]", "values": [
      {"measurement": "IC50", "setting": "200 nM BODIPY-C16, 5 µM Cq-FABP, read-out: IC50 (displaces 50% of BODIPY-C16 from the fatty acid binding site)", "result": 1.17, "unit": "µM"},
      {"measurement": "Kd", "setting": "calculated from the IC50 values, using Eq. 6, 200 nM BODIPY-C16, 5 µM Cq-FABP", "result": "1.15 ± 0.2", "unit": "µM"},
      {"measurement": "Kd", "setting": "calculated from the Kd app,C16 values, using Eq. 5, 200 nM BODIPY-C16", "result": "1.6 ± 0.3", "unit": "µM"}
    ]}
  ]
}
